Assays:
crabgrass, large [1] = test: Test A postemergence; type: in vivo, Digitaria sanguinalis
Procedure, shortened: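 After sowing in a sand–loam mix, pots received compound preemergence by directed soil spray, or postemergence once plants reached the one- to two-leaf stage (2–10 cm). Formulation contained surfactant in a non-phytotoxic solvent. Injury was scored visually after ~10 greenhouse days, 0–100 scale.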

wheat = test: Test C preemergence; type: in vivo, Triticum aestivum; details: for Wheat plant response rating: scale 0 to 100 (0 no effect, 100 complete control)
Procedure, shortened: (§1)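 Greenhouse pot test: preemergence application onto freshly seeded loam/sand mix, postemergence application onto seedlings (1–4 leaves, 2–18 cm) in peat-vermiculite substrate. Responses scored visually 13 to 15 days later relative to controls, where 0 means no effect and 100 means complete control; a dash indicates no result.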

galium = test: Test C preemergence; type: in vivo, Galium aparine; details: for Galium plant response rating: scale 0 to 100 (0 no effect, 100 complete control)
Procedure, shortened: as §1

johnsongrass [2] = test: Test C preemergence; type: in vivo, Sorghum halepense; details: for Johnsongrass plant response rating: scale 0 to 100 (0 no effect, 100 complete control)
Procedure, shortened: as §1

lambsquarters = test: Test C preemergence; type: in vivo, Chenopodium album; details: for Lambsquarters plant response rating: scale 0 to 100 (0 no effect, 100 complete control)
Procedure, shortened: as §1

soybean = test: Test C preemergence; type: in vivo, Glycine max; details: for Soybean plant response rating: scale 0 to 100 (0 no effect, 100 complete control)
Procedure, shortened: as §1

barnyardgrass = test: Test C preemergence; type: in vivo, Echinochloa crus-galli; details: for Barnyardgrass plant response rating: scale 0 to 100 (0 no effect, 100 complete control)
Procedure, shortened: as §1

oilseed rape = test: Test C preemergence; type: in vivo, Brassica napus; details: for Oilseed Rape plant response rating: scale 0 to 100 (0 no effect, 100 complete control)
Procedure, shortened: as §1

velvetleaf [3] = test: Test C preemergence; type: in vivo, Abutilon theophrasti; details: for Velvetleaf plant response rating: scale 0 to 100 (0 no effect, 100 complete control)
Procedure, shortened: as §1

blackgrass = test: Test C postemergence; type: in vivo, Alopecurus myosuroides
Procedure, shortened: as §1

crabgrass, large [4] = test: Test C postemergence; type: in vivo, Digitaria sanguinalis
Procedure, shortened: as §1

johnsongrass [5] = test: Test C postemergence; type: in vivo, Sorghum halepense
Procedure, shortened: as §1

morningglory = test: Test C postemergence; type: in vivo, Ipomoea coccinea
Procedure, shortened: as §1

velvetleaf [6] = test: Test C postemergence; type: in vivo, Abutilon theophrasti
Procedure, shortened: as §1

chickweed = test: Test C postemergence; type: in vivo, Stellaria media
Procedure, shortened: as §1

[7] = preemergence, 31 g ai/ha, visual rating, 13 to 15 days
[8] = preemergence, 62 g ai/ha, 13 to 15 days
[9] = preemergence, 125 g ai/ha, 13 to 15 days, scale 0 to 100, 0 = no effect, 100 = complete control
[10] = Postemergence, 31 g ai/ha, visually evaluated after 13 to 15 days
[11] = postemergence, 62 g ai/ha, scale 0 to 100
[12] = postemergence, 250 g ai/ha, scale 0 to 100 (0 no effect, 100 complete control)
[13] = postemergence, 125 g ai/ha, scale 0 to 100, 0 no effect, 100 complete control

## CCCNC(=O)c1cc(CC)n(Cc2ccnc(OC(F)F)c2)n1 [Compound 132]
crabgrass, large [1]; Postemergence, 500 g ai/ha, 0 to 100 scale (0 no effect, 100 complete control)
  Crabgrass, Large plant response rating: 90
crabgrass, large [1]; postemergence, 125 g ai/ha, about 10 days, visual rating on 0 to 100 scale (0 no effect, 100 complete control)
  Crabgrass, Large plant response rating: 90
wheat; Preemergence, 250 g ai/ha
  Plant response rating (scale of 0 to 100), Wheat: 95
wheat; [7]
  Wheat plant response rating: 15
wheat; [8]
  Wheat plant response rating: 15
wheat; [9]
  Plant response rating, Wheat: 70
galium; Preemergence, 250 g ai/ha
  Plant response rating (scale of 0 to 100), Galium: 100
galium; [7]
  Galium plant response rating: 98
galium; [8]
  Galium plant response rating: 100
galium; [9]
  Plant response rating, Galium: 100
Johnsongrass [2]; Preemergence, 250 g ai/ha
  Plant response rating (scale of 0 to 100), Johnsongrass: 100
Johnsongrass [2]; [7]
  Johnsongrass plant response rating: 25
Johnsongrass [2]; [8]
  Johnsongrass plant response rating: 90
Johnsongrass [2]; [9]
  Plant response rating, Johnsongrass: 100
lambsquarters; Preemergence, 250 g ai/ha
  Plant response rating (scale of 0 to 100), Lambsquarters: 100
lambsquarters; [7]
  Lambsquarters plant response rating: 100
lambsquarters; [8]
  Lambsquarters plant response rating: 100
lambsquarters; [9]
  Plant response rating, Lambsquarters: 100
soybean; Preemergence, 250 g ai/ha
  Plant response rating (scale of 0 to 100), Soybean: 95
soybean; [7]
  Soybean plant response rating: 35
soybean; [8]
  Soybean plant response rating: 75
soybean; [9]
  Plant response rating, Soybean: 90
barnyardgrass; Preemergence, 250 g ai/ha
  Plant response rating (scale of 0 to 100), Barnyardgrass: 100
barnyardgrass; preemergence, 31 g ai/ha, 13 to 15 days
  Barnyardgrass plant response rating: 95
barnyardgrass; [8]
  Barnyardgrass plant response rating: 100
barnyardgrass; [9]
  Plant response rating, Barnyardgrass: 100
Oilseed rape; Preemergence, 250 g ai/ha
  Plant response rating (scale of 0 to 100), Oilseed Rape: 100
Oilseed rape; [7]
  Oilseed Rape plant response rating: 75
Oilseed rape; [8]
  Oilseed Rape plant response rating: 98
Oilseed rape; [9]
  Plant response rating, Oilseed Rape: 100
Velvetleaf [3]; Preemergence, 250 g ai/ha
  Plant response rating (scale of 0 to 100), Velvetleaf: 100
Velvetleaf [3]; [7]
  Velvetleaf plant response rating: 55
Velvetleaf [3]; [8]
  Velvetleaf plant response rating: 100
Velvetleaf [3]; [9]
  Plant response rating, Velvetleaf: 100
blackgrass; [10]
  Plant response rating (scale of 0 to 100 where 0 is no effect and 100 is complete control), Blackgrass: 5
blackgrass; [11]
  Blackgrass plant response rating: 5
blackgrass; [12]
  Plant response rating, Blackgrass: 25
blackgrass; [13]
  Plant response rating, Blackgrass: 10
crabgrass, large [4]; [10]
  Plant response rating (scale of 0 to 100 where 0 is no effect and 100 is complete control), Crabgrass, Large: 5
crabgrass, large [4]; [11]
  Crabgrass, Large plant response rating: 5
crabgrass, large [4]; [12]
  Plant response rating, Crabgrass, Large: 55
crabgrass, large [4]; [13]
  Plant response rating, Crabgrass, Large: 75
Johnsongrass [5]; [10]
  Plant response rating (scale of 0 to 100 where 0 is no effect and 100 is complete control), Johnsongrass: 5
Johnsongrass [5]; [11]
  Johnsongrass plant response rating: 5
Johnsongrass [5]; [12]
  Plant response rating, Johnsongrass: 75
Johnsongrass [5]; [13]
  Plant response rating, Johnsongrass: 25
morningglory; [10]
  Plant response rating (scale of 0 to 100 where 0 is no effect and 100 is complete control), Morningglory: 30
morningglory; [11]
  Morningglory plant response rating: 75
morningglory; [12]
  Plant response rating, Morningglory: 98
morningglory; [13]
  Plant response rating, Morningglory: 80
Velvetleaf [6]; [10]
  Plant response rating (scale of 0 to 100 where 0 is no effect and 100 is complete control), Velvetleaf: 5
Velvetleaf [6]; [11]
  Velvetleaf plant response rating: 15
Velvetleaf [6]; [12]
  Plant response rating, Velvetleaf: 50
Velvetleaf [6]; [13]
  Plant response rating, Velvetleaf: 35
chickweed; [10]
  Plant response rating (scale of 0 to 100 where 0 is no effect and 100 is complete control), Chickweed: 75
chickweed; [11]
  Chickweed plant response rating: 70
chickweed; [12]
  Plant response rating, Chickweed: 85
chickweed; [13]
  Plant response rating, Chickweed: 75

From US20150105252A1, “SUBSTITUTED PYRAZOLES AS HERBICIDES” (E I DU PONT DE NEMOURS AND COMPANY, priority 2013, published 2015)
